Assays:
Assay type in all cases: biochemical, Streptococcus thermophilus
PepTSt (WT) = test: proton-driven [3H]-di-Ala uptake competition in reconstituted liposomes, WT transporter
Method: (§1) PepTSt was reconstituted into Escherichia coli total lipids with egg PC liposomes and assayed using a proton-driven system as previously described.
Figure S2. Substrate specificity profile for PepTSt.
‘% residual transport ’ refers to competition for 3H-Ala-Ala uptake in the presence of 10 mM of the cold peptides indicated on the X-axis as a percentage of ‘no competitor’ peptide in a reconstituted proton driven uptake assay.Error bars indicate the standard deviation from three independent

PepTSt Asn156Ala (N156A) = test: proton-driven [3H]-di-Ala uptake competition in reconstituted liposomes, N156A variant
Description: as §1

PepTSt Tyr29Phe (Y29F) = test: proton-driven [3H]-di-Ala uptake competition in reconstituted liposomes, Y29F variant
Description: as §1

PepTSt Trp427Phe (W427F) = test: proton-driven [3H]-di-Ala uptake competition in reconstituted liposomes, W427F variant
Description: as §1

| Substance | % residual transport (competition for 3H-Ala-Ala uptake), result in words (PepTSt (WT); 10 mM cold peptide, reconstituted proton driven uptake assay, WT PepTSt) | IC50 (PepTSt Asn156Ala (N156A)) [µM] | IC50 (PepTSt Tyr29Phe (Y29F)) [µM] | IC50 (PepTSt Trp427Phe (W427F)) [µM] | IC50 (PepTSt (WT); WT PepTSt in liposomes, proton-driven uptake) [µM] |
| --- | --- | --- | --- | --- | --- |
| tri-glycine | not able to compete effectively | – | – | – | – |
| L-Ala-L-Ala [Ala-Ala] | – | 86 | 40 | 35 | 37 |

Reference: publication PMC4149780, “Structural basis for polyspecificity in the POT family of proton-coupled oligopeptide transporters” (EMBO Reports, 2014)
